Consider 4 compounds from US6605639B1, “Ligands of nuclear receptor” (Nuclear Receptor Research, Ltd., priority 1998, dated 2003).

Where “and” joins values, the source holds several entries; their conditions need not be identical. Equal entries are not always repeated.

Assay [1] deals with T1, RAR (Homo sapiens, UniProt P10276).
T1 construct: expressed in transfected cells; host or cells: COS-1 cells
T1 sequence (P10276 1-462): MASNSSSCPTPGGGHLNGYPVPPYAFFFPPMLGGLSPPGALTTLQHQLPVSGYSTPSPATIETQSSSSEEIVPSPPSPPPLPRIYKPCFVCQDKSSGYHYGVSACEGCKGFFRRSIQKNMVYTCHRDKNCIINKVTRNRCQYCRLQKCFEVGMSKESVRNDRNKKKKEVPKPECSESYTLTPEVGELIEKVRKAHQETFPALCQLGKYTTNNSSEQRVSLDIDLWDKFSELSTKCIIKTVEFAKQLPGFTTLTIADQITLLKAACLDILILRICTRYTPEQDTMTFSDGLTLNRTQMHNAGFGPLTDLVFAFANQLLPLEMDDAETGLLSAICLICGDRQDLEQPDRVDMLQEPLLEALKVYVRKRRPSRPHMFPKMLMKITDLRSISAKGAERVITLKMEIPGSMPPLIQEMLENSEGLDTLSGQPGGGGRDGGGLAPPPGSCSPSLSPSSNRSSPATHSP
The assay can be described thus: RAR reporter gene (luciferase) transfer assay in COS-1 cells. Format: cell-based. Particulars: control lot = 1. The text has this: Each value means the degree of increase in the luciferase activity, which is expressed by referring the luciferase activity in the control lot as to 1, caused by the addition of the corresponding compound.
As a substitute for a plasmid containing a luciferase gene under the regulation in expression by RXR response element (pRXRL:RXRE-SV40 luciferase), and the RXRα expression plasmid (pRXRα); a plasmid containing a luciferase gene under the regulation in expression by RXR response element (pRARL:RASE-SV40 luciferase), and a […] (pRARα) were transferred into COS-1 cells. Transfectants with these plasmids and the compound of the present invention (concentration: 10^−4 to 10^−7 M) were added to the culture.
After sucking off the medium from the Petri dish, […] of a cultured cell lysing solution (25 mM Tris phosphate buffer (pH 7.8), 2 mM 1,2-diaminocyclohexane-N, N,N′,N′-tetraacetate, 10% glycerol, 1% Triton X-100) was added and the cells were peeled off with a rubber policeman and collected. After completely disrupting the cells by freezing and melting, the cells were centrifuged at 4° C. (15,000 rpm, 2 min) and the supernatant thus obtained was employed as a sample for measurement. To 20 ml of the supernatant, 100 ml of a luciferase substrate solution (2.14 mg of Co-A, 100 ml of 470 mM D-Luciferin, 200 ml of 530 mM ATP, 2 ml of DTT-Tricine buffer (pH 7.8)) was added and the fluorescence intensity was measured with a luminometer (ATTO Luminosensor AB-2000). To measure the β-galactosidase for determining the gene transfer efficiency, using a Luminescent β-galactosidase detection kit II (Clontech), fluorescence intensity was measured by a luminometer.
(In general: Reporter assays use an easily measured gene product as a stand-in for the process of interest.)

The subject of assay [2] is male ICR and ddY mice. Put plainly: Serum total cholesterol lowering effect in mice. Format: in vivo, mouse. The following applies: 8 days; for Serum total cholesterol, % change: vs control; for Serum total cholesterol: Mean±SE. The text has this:
Effect of serum cholesterol lowering agents varies among animals. Namely, some agents which are effective on a certain animal exert […] on others. For example, compactin, which is an HMG CoA reductase inhibitor, cannot lower the serum total cholesterol level when administered to rodents such as rat or mouse. This is because even though HMG CoA reductase is inhibited in the rodent liver, the enzyme is biosynthesized in an amount in excess of that for compensating the inhibition so that the inhibitory effect is negated. Accordingly, it is favorable to calibrate the effect of lowering serum total cholesterol level in as many animals as possible. Concerning the effect of the compounds of the present invention on the serum total cholesterol level, an assay was made with the use of mice. After adding these compounds to a standard powdery feed for rat and mouse, the resultant mixtures were molded into pellets and given for 8 days to male ICR and ddY mice aged 5 weeks. In the afternoon of the day 8, the blood of each animal was collected from the heart and the total cholesterol in the serum was determined. The doses were determined as the maximum dose, in which body weight gain was not suppressed after orally administering for 1 week, and as the ¼ dose thereof.
Each value is represented in Mean±SE (n=10). a) In the case of Compound-1, the control group consisted of 23 animals while the 0.04% and 0.01% groups each consisted of 12 animals.

For “3-[5-[l(R),2(S),6(S)-trimethyl-3-oxocylohexyl]-3-methyl-2,4-pentadienyl]-2,4-dihydroxy-5-chloro-6-methylbenzaldehyde [Compound-1]”, in assay [1] (10^−6 M), the “degree of increase in the luciferase activity, RAR vector” value (shortened to “degree of increase”) came to 30. Besides, the results for the “Serum total cholesterol, % change” value in assay [2] (0.01% in feed) and in assay [2] (0.04% in feed) were −11% and −15%, respectively. The Serum total cholesterol in assay [2] (0.01% in feed) came to 138 ± 5.1 mg/dL; in assay [2] (0.04% in feed) it was 131 ± 6.7 mg/dL.
Take `COc1c(Cl)c(C)c(C=O)c(O)c1C/C=C(C)/C=C/[C@@]1(C)[C@H](C)CCC(=O)[C@@H]1C` [Compound-6, 4-O-methylASC]: in assay [1] (5 × 10^−6 M), the “degree of increase” value is recorded as 35. In assay [2] (0.01% in feed), the “Serum total cholesterol, % change” value was −16% and −13%. For the same compound, the Serum total cholesterol in assay [2] (0.01% in feed) was 93 ± 4.4 mg/dL and 103 ± 1.2 mg/dL; in assay [2] (0.04% in feed), 92 ± 3.3 mg/dL and 75 ± 4.4 mg/dL.
Regarding `CC(/C=C/[C@@]1(C)[C@H](C)CCC(=O)[C@@H]1C)=C\Cc1c(O)c(C=O)c(C)c(Cl)c1OCC(=O)O` [Compound-14, 4-O-carboxymethylASC], the “degree of increase” value in assay [1] (10^−5 M) is reported as 38. Moreover, in assay [2] (0.01% in feed), the “Serum total cholesterol, % change” value is −7% and −13%. Besides, the Serum total cholesterol in assay [2] (0.01% in feed) is 109 ± 2.8 mg/dL and 174 ± 4.9 mg/dL; in assay [2] (0.04% in feed), 144 ± 7.2 mg/dL and 100 ± 4.4 mg/dL.
As for `CC(/C=C/C1(C)C(C)C=CC(=O)C1C)=C\Cc1c(O)c(Cl)c(C)c(C=O)c1O` (stereo not drawn) [Compound-26], the “degree of increase” value in assay [1] (4 × 10^−7 M) was determined as 33. In addition, in assay [2] (0.01% in feed), the “Serum total cholesterol, % change” value is −10% and the Serum total cholesterol came to 132 ± 6.1 mg/dL. For the same compound, in assay [2] (0.04% in feed), the “Serum total cholesterol, % change” value is listed as −24% and the Serum total cholesterol was 110 ± 5.4 mg/dL.
